For this test, the system named is CXCR4. The test is described as follows: CXCR4 PET/CT with tracer 68Ga-Pentixafor in patients with idiopathic pulmonary fibrosis, prior to and under therapy. In kind it is in vivo, human. The following applies: for CXCR4 signal (PET/CT): patients with idiopathic pulmonary fibrosis, after onset of therapy vs prior to therapy, 68Ga-Pentixafor tracer. As to the method:
Patients were diagnosed with clinical idiopathic pulmonary fibrosis according to diagnostic criteria of the American Thoracic Society/European Respiratory Society.
Pentixafor synthesis. Material for synthesis of ^68Ga-pentixafor (CPCR4.2) was provided by Scintomics (Fürstenfeldbruck, Germany) Synthesis was performed as previously described (18, 19), using a ^68Ge/^68Ga-generator (Eckert&Ziegler, Braunschweig, Germany) connected to a Scintomics GRP synthesis module.
Clinical Imaging. All studies were obtained on a dedicated PET/CT system (Biograph mCT 128 Flow; Siemens, Knoxville, USA), equipped with an extended field-of-view LSO PET component, a 128-slice spiral CT component, and a magnetically driven table optimized for continuous scanning The patients received an intravenous injection of 110 (IQR, 80-120) MBq of ^68Ga-pentixafor. Imaging started with a low-dose non-enhanced helical CT (120 kV, mA modulated, pitch 1.2, reconstructed axial slice thickness 5.0 mm) performed for attenuation correction of PET acquisitions. PET images of the whole body were then acquired using continuous bed motion (CBM) at a speed of 2.0 mm/s for head and neck and 0.5 mm/s for chest and abdomen at 60 min post injection. All studies were reconstructed using time-of-flight and point-spread function information combined with an iterative algorithm (Ultra HD®, Siemens Healthcare; 2 iterations, 21 subsets, matrix 200; zoom 1.0; Gaussian filter of 5.0). In addition, a non-contrast breath-hold high-resolution CT (HRCT) (120 kV, mA modulated) of the chest was used to obtain contiguous 1.0-mm cross-sectional slices throughout the thorax.
PET/CT image analysis. Transaxial PET, CT and fused PET/CT 68Ga-pentixafor PET/CT images were analyzed on a dedicated workstation equipped with a commercial software package (syngo.via; Siemens Healthcare).
PET images were visually evaluated for the presence of elevated radiotracer uptake in lung parenchyma in areas of usual interstitial pneumonia (UIP) pattern on CT. Then, ^68Ga-Pentixafor uptake was quantified using a 3D Volume-of-Interest (VOI) technique with isocontour thresholding, yielding mean and peak standardized uptake values (SUVmean and SUVpeak). Separate measurements were performed in three subpleural regions in each lung lobe, and values for each region were then averaged for the subsequent statistical analysis. Tracer uptake in mediastinal and hilar lymph nodes was assessed in three thoracic lymph node stations using 3D VOIs with isocontour thresholding, and also averaged for the subsequent statistical analysis. In addition, tracer uptake (SUVmean) in spleen and bone marrow was […], recorded to evaluate systemic interactions.
Patients suffering from idiopathic pulmonary fibrosis were investigated for CXCR4 abundance by PET/CT using a CXCR4 tracer ^68Ga-Pentixafor as described.
The mean signal intensities (SUVmean) were determined in different regions, i.e. upper-, middle and lower fields. The volume of CXCR4-positive areas were determined and put into relation to the total volume of the respective areas. The extent of the fibrotic areas were judged in PET/CT and the SUVmean was determined for mediastinal lymph nodes, spleen and bone marrow.

In the case of `COC(=O)c1ccc2c(c1)NC(=O)/C2=C(\Nc1ccc(N(C)C(=O)CN2CCN(C)CC2)cc1)c1ccccc1` [Nintedanib], the “CXCR4 signal (PET/CT)” value is reported as “increase”. Moreover, the “CXCR4 signal, single further patient” value (one of 5 analyzed patients under treatment) was “constant”. Moreover, the “CXCR4 signal intensity, single patient with familial idiopathic pulmonary fibrosis” value (one of 5 analyzed patients, unclear whether drug was taken on the day of investigation) is recorded as “decrease”. Moreover, the “CXCR4 signal (PET/CT)” value (listed as Nitedanib) is on record as “significant increase”. For the same compound, the “patients showing a strong increase in CXCR4 signal intensity in the fibrotic areas in the lung” value (under treatment, these patients received 150 mg in the morning of the PET/CT day) is listed as 3 out of 5.

`Cc1ccc(=O)n(-c2ccccc2)c1` [Pirfenidone]: the “signal intensities for CXCR4” value (cohort of 12 patients with idiopathic pulmonary fibrosis under treatment vs baseline) is “remained constant or even decreased”. Further, where the note is “patients with idiopathic pulmonary fibrosis under treatment”, the “strong increase of CXCR4 signal in pulmonary fibrotic areas” value is recorded as “not observed”.
